Reference: patent US20120029418A1, “COMPOSITION AND METHOD FOR PHOTODYNAMIC DISINFECTION” (Advanced Photodynamic Technologies, Inc., priority 2010, published 2012)
Where two headings read alike, the source gives them in different places.

Legend:
[1] = test system: polymicrobial biofilms containing MRPA and MRSA; experiment: Example I: photodynamic disinfection of polymicrobial biofilm discs; format: cell-based
Protocol: (§1) An in vitro study was conducted on polymicrobial biofilms containing MRPA and MRSA using the following compositions: (i) compositions each comprising EDTA at one of the following concentrations: 0.5 mM (0.014612% w/v), 0.75 mM, 1.0 mM and 1.25 mM; (ii) composition comprising of methylene blue at a concentration of 0.05% w/v; (iii) compositions each comprising methylene blue at a concentration of 0.05% w/v and EDTA at one of the following concentrations: 0.5 mM, 0.75 mM, 1.0 mM and 1.25 mM. Clinical isolates of MRPA and MRSA were used in this study. Overnight tryptic soy broth (Remel, Lenexa, Kans.) cultures were centrifuged for 15 minutes at 5,000 RPM. The supernatants were removed and the cells washed and resuspended in 1× phosphate buffered saline (PBS) by alternate rounds of centrifugation for 2 minutes at 12.1×g and resuspension. Resulting bacterial suspensions were diluted with PBS to obtain approximately 1.5×10^5 cells/mL of each bacterium measured using a CrystalSpec nephlometer (BD Diagnostic Systems, Sparks, Md.). The suspensions were then combined. […]
(§2) Thereafter, all of the biofilm discs were each placed in a sterile 50 mL centrifuge tube with 1 mL of PBS, vortexed vigorously for one minute. […] The colonies were counted by a Protos automated counter (Synoptics, Frederick, Md.) to determine the total number of viable bacteria and expressed as colony forming units (CFU). […]

planktonic MRPA and MRSA = experiment: Example IV: planktonic MRPA and MRSA study; format: cell-based; conditions: for planktonic MRPA and MRSA reduction compared to the control: methylene blue 0.005% w/v, no EDTA
Protocol: An in vitro study was conducted on planktonic MRPA and MRSA using the following compositions. (i) compositions each comprising EDTA at One of the following concentrations: 0.005 mM, 0.01 mM, 0.025 mM, 0:05 mM (0.0014612% w/v), 0.075 mM (0.0021918% w/v), 0.1 mM, 0.175 mM, 0.25 mM and 0.4 mM (0.0116896% w/v); (ii) composition comprising of methylene blue at a concentration of 0.005% w/v; and (iii) compositions each comprising of methylene blue at a concentration of 0.005% w/v with EDTA at one of the following concentrations: 0.005 mM, 0.01 mM, 0:025 mM, 0.05 mM, 0.075 mM, 0.1 mM 0.175 mM, 0.25 mM and 0.4 mM. The planktonic MRPA and MRSA samples were prepared in the same fashion as described in Example 1 in order to obtain approximately 1.5×10^8 cells/mL of MRPA and approximately 1.5×10^8 cells/mL of MRSA which were then combined.
Each of the compositions discussed above was prepared and then mixed with the combined bacterial solution of MRPA and MRSA and incubated for 30 seconds (“treated samples”). Thereafter, test tubes were prepared each containing 50 μl of one of the treated samples. Some of these test tubes were kept in dark incubation for 400 seconds while the remaining test tubes were exposed to 664 nm light using a non-laser light at a power density of 100 mW/cm^2 and a light energy dose of 10 J/cm^2.
Thereafter, a cotton-tipped swab (Puritan, Guilford, Me.) was dipped into the suspension contained within each test tube, placed in 1 mL of PBS With the stick broken off, and then vortexed for 3-5 seconds (“test samples”). […] The colonies were counted by a Protos automated counter (Synoptics, Frederick, Md.) to determine the number of viable bacteria and expressed as colony forming units (CFU). […] Counts for all experimental and control conditions were averaged and expressed as CFU/ml.
The planktonic MRPA and MRSA reduction rate was calculated as surviving CFU/ml in experimental conditions vs. the control (i.e., test samples that received no treatment) expressed as a log10 reduction from control and shown in FIGS. 6-7.

[2] = cited from earlier work
[3] = test system: Pseudomonas aeruginosa ATCC # 9027 in polymicrobial biofilms; experiment: Example III: polymicrobial biofilm study, Pseudomonas aeruginosa count; format: cell-based; conditions: no EDTA, 669 nm, 72 J/cm^2
Protocol: An in vitro study was conducted on polymicrobial biofilms containing MRSA and Pseudomonas aeruginosa. Stock cultures of MRSA ATCC # 33592 and Pseudomonas aeruginosa ATCC # 9027 were grown aerobically overnight on tryptic soy agar, harvested individually, and suspended in PBS solution with MRSA at a concentration of ˜2×10^8 CFU/ml and Pseudomonas aeruginosa at a concentration of ˜3×10^6 CFU/ml. Cell densities were measured as a function of absorbance at 420 nm using a Genesys 10 spectrophotometer (Thermo Scientific, Pittsburgh, Pa.). Pseudomonas aeruginosa inocula were then serial diluted in PBS to a concentration of ˜3×10^4 CFU/ml. The two suspended inocula (MRSA and Pseudomonas aeruginosa) were mixed at a ratio of 1:1 and then further diluted 1:40 into tryptic soy broth to achieve the biofilm inoculum of having a MRSA final concentration of ˜2.5×10^6 CFU/ml and Pseudomonas aeruginosa at a final concentration of ˜3.75×10^3 CFU/ml
The biofilm inoculum, prepared as described above, was then pipetted onto 8 mm diameter sterile silicone discs placed inside a 24-well culture plate with 600 μl of the biofilm inoculum per well. The plates were then allowed to shake for 24 hours at 125 rotations per minute using an Innova 200 platform gyrorotary shaker (New Brunswick Scientific Co, Edison N.J.) at 35° C. After 24 hours, all residual liquid from each well was removed and 600 μl of sterile tryptic soy broth was added to each well. […]
Immediately following illumination, the glass cover slip was removed carefully using sterile forceps and biofilm disc surfaces were swabbed using a calcium alginate swab following a reproducible “X” pattern. […] Colony counts were counted separately for each bacterial species (i.e., MRSA and Pseudomonas aeruginosa) providing differentiation of reduction for each of the bacterial species. Counts for all experimental and control conditions were averaged and expressed as CFU/ml. The bacteria reduction rate was calculated as surviving CFU/ml in experimental conditions vs. the control expressed as a log10 reduction from the control. […]

[4] = test system: polymicrobial biofilms containing MRPA and MRSA; experiment: Example II: repeat polymicrobial biofilm study, protocol of Example I; format: cell-based; conditions: FIG. 2; methylene blue 0.05% w/v, no EDTA
Protocol: as §1, §2

Compound | biofilm bacterial count reduction ([1]; EDTA alone at 0.5 mM, 0.75 mM, 1.0 mM and 1.25 mM) | bacterial count reduction (planktonic MRPA and MRSA; EDTA alone at 0.005 mM to 0.4 mM, without light (dark incubation for 400 seconds)) | bacterial reduction compared to the control ([1]; FIG. 1, methylene blue 0.05% w/v, no EDTA, 664 nm, 45 J/cm^2) [log10] | yield of the singlet oxygen generation ([2]; pH 5) | yield of the singlet oxygen generation ([2]; pH 9) | planktonic MRPA and MRSA reduction compared to the control (planktonic MRPA and MRSA; FIG. 6, without any light (dark incubation 400 seconds)) [log10] | planktonic MRPA and MRSA reduction compared to the control (planktonic MRPA and MRSA; FIG. 7, with light treatment (664 nm, 10 J/cm^2)) [log10] | Pseudomonas aeruginosa reduction compared to the control ([3]; FIG. 3, methylene blue 0.01% w/v) [log10] | Pseudomonas aeruginosa reduction compared to the control ([3]; FIG. 4, methylene blue 0.03% w/v) [log10] | Pseudomonas aeruginosa reduction compared to the control ([3]; FIG. 5, methylene blue 0.05% w/v) [log10] | bacterial reduction compared to the control [4] [log10]
O=C(O)CN(CCN(CC(=O)O)CC(=O)O)CC(=O)O [EDTA, ethylenediaminetetraacetic acid] | did not result in any statistically significant biofilm bacterial count reduction | did not result in any statistically significant bacterial count reduction |  |  |  |  |  |  |  |  | 
CN(C)c1ccc2nc3ccc(=[N+](C)C)cc-3sc2c1 [methylene blue] |  |  | 2.5 | 0.2 | 0.94 | 2.4 | 3.5 | 2.9 | 2.9 | 2.6 | 3.4
